US20260035382A1, “COMPOUNDS AS SUMO ACTIVATING ENZYME INHIBITORS” (WIGEN BIOMEDICINE TECHNOLOGY (SHANGHAI) CO., LTD., priority 2022, published 2026)
Like-named read-outs stand apart in the source and are kept apart here.

Tests used:
[1] = In vivo pharmacokinetic experiment, intravenous administration; conditions: CD-1 female mice, 2 mpk; for Plasma AUClast: plasma (Table 5); for C0 / clearance / half-life / AUC(0-t) / Cmax / Vd: mouse, 2 mg/kg; for Vd: read-out: Vdss
Experimental: CD-1 female mice aged 6 to 8 weeks were intravenously administered at a dose of 2 mg/kg. The mice were fasted for at least 12 h before the administration and given food after the administration, and they were given ad libitum access to water during the experiment. On the day of the experiment, animals in the intravenous group were administered the corresponding compound by single injection via the tail vein at an administration volume of 0.2 mL/animal. The sample collection time was 0.083 h, 0.167 h, 0.5 h, 1 h, 2 h, 4 h, 8 h, and 24 h. About 150 μL of whole blood was collected through the submaxillary venous plexus at each time point (30 μL of whole blood was diluted with ultrapure water at a ratio of 1:3, and 120 μL of whole blood was centrifuged to obtain plasma) and used for concentration determination by high-performance liquid chromatography-tandem mass spectrometry (LC-MS/MS). All animals were sacrificed after the PK samples were collected at the last time point. The plasma concentration was processed using a non-compartmental model of Phoenix WinNonlin™ version 8.3 (Certara) pharmacokinetic software, and the pharmacokinetic parameters were calculated using a linear-log trapezoidal method.

[2] = target: SAE (Homo sapiens (Human), UniProt Q9UBT2); experiment: In vitro inhibitory activity assay against SAE (SUMO-2/3 immunofluorescence in HCT116 cells); format: cell-based; conditions: 6 h incubation, numeric values, read-out: SUMO IF IC50
Summary of the method: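 HCT116 cells treated with compounds for 6 h at 37 °C, then fixed, permeabilized and immunostained for SUMO-2/3 with FITC secondary detection. Fluorescence compared with DMSO control to give inhibition rate and IC50.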

[3] = whole blood, read-out: Whole blood AUClast
[4] = whole blood, read-out: Whole blood Cmax

Chain of SAE (Q9UBT2 whole entry): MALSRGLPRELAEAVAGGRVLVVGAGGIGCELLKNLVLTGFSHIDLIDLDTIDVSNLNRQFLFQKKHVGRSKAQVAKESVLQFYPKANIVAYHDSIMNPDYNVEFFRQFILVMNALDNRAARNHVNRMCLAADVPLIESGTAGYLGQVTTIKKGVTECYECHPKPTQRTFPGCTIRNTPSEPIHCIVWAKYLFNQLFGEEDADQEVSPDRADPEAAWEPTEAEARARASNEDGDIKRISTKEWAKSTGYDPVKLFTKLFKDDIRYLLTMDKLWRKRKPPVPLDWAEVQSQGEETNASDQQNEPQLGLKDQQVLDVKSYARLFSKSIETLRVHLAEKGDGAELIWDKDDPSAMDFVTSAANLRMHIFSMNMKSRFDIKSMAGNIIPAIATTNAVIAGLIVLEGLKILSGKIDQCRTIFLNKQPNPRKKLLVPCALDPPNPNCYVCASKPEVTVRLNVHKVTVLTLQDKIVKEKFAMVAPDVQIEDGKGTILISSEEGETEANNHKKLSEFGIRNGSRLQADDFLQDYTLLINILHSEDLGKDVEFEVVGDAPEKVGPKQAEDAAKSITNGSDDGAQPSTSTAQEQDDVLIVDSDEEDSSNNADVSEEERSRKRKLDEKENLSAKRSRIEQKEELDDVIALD
Chain of SAE (Q9UBE0 whole entry partner): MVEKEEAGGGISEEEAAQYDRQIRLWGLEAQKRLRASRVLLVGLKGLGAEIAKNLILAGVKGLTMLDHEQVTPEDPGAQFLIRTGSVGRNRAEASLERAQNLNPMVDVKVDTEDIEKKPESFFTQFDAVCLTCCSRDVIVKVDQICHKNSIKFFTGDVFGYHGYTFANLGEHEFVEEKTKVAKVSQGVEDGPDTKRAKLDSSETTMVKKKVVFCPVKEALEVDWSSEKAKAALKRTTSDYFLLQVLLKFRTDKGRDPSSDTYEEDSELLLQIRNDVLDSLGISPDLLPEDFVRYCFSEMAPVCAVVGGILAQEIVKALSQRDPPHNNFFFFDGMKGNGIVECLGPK

Whole blood AUClast/plasma AUClast ratio [1] | Whole blood Cmax/plasma Cmax ratio [1] | Plasma AUClast [1] [ng·h/mL] | C0 ([1]; plasma) [ng/mL] | clearance ([1]; plasma) [mL/min/kg] | half-life ([1]; plasma) [h] | AUC(0-t) ([1]; plasma, read-out: AUClast) [ng·h/mL] | Cmax ([1]; plasma, read-out: Cmax) [ng/mL] | Vd ([1]; plasma) [L/kg] | AUC(0-t) [1, 3] [ng·h/mL] | Cmax [1, 4] [ng/mL] | Structure (SMILES) | IC50 [2] [nM]
39.0 | 19.7 | 881 | 1080 | 36.9 | 1.45 | 881 | 798 | 3.5 | 34400 | 15800 | NS(=O)(=O)OC[C@H]1C[C@@H](Nc2ncncc2C(=O)c2cc3c(s2)CCC[C@]32NCCc3ccc(Cl)cc32)C[C@@H]1O [Compound 6] | 27.8
32.7 | 23.9 | 580 | 730 | 56.9 | 1.31 | 580 | 597 | 3.91 | 19000 | 14300 | NS(=O)(=O)OC[C@H]1C[C@@H](Nc2ncncc2C(=O)c2cc3c(s2)CCC[C@]32NCCc3ccc(F)cc32)C[C@@H]1O [Compound 9] | 36
45.9 | 17.5 | 1479 | 1610 | 21.1 | 2.17 | 1480 | 1150 | 3.03 | 67900 | 20200 | NS(=O)(=O)OC[C@H]1C[C@@H](Nc2ncncc2C(=O)c2cc3c(s2)COC[C@]32NCCc3ccc(Cl)cc32)C[C@@H]1O [Compound 21] | 87.5
 |  |  | 839 | 44 | 1.32 | 749 | 719 | 3.43 |  |  | NS(=O)(=O)OC[C@H]1C[C@@H](Nc2ncncc2C(=O)c2cc3c(s2)CC[C@]32NCCc3ccc(Cl)cc32)C[C@@H]1O [Compound 48] | 41
